Tested on: freshly isolated mononuclear cells from AML samples
Experiment: Ex vivo functional drug screen (MTS viability, AUC) on primary AML samples, compared by mutation or clinical group
Format: cell-based, human
Source text: This panel contained graded concentrations of a drugs with activity against two-thirds of the tyrosine kinome as well as other non-tyrosine kinase pathways, including MAPKs, PI3K/AKT/mTOR, AMPK, ATM, Aurora kinases, CAMKs, CDKs, GSK3a/b, IκK, PKA, PKC, PLK1, and RAF. In addition, the library contained small molecule inhibitors with activity against the BCL2 family, BRD4, Hedgehog, HSP90, NOTCH/gamma-secretase, proteasome, survivin, STAT3, and WNT/beta-catenin. Drug sensitivity patterns were analyzed with respect to clinical and genetic features of tumors. We compared the average area-under-the curve (AUC) values for each drug between the de novo and transformed samples via a series of single factor ANOVAs. […] In addition, we analyzed the concordance of drug sensitivity patterns with respect to predicted target gene, gene family, or pathway for each drug. […] To create a global view of overall sensitivity or resistance of each case, we generated a heatmap of binary sensitive/resistant calls for each sample to each drug.
Correlation of drug sensitivity with mutational events was performed by assessing the range of sensitivity of cases with mutation of an individual gene (as well as co-occurring mutational events) versus cases with wild type sequence for that same gene. […] The difference in average drug sensitivity of mutant versus wild type cases for each drug/mutation pair was plotted on the horizontal axis of a volcano plot with a test for statistical significance of the comparison plotted on the vertical axis (corrected for multiple comparison false discovery rate^42; FIG. 4). […] To aid in discovery of potential mutational biomarkers of drug sensitivity, we plotted volcano plots that were specific to each individual drug (versus all possible mutational events) and for each individual gene (versus all possible drugs tested).
Ex vivo drug screens were performed on freshly isolated mononuclear cells from AML samples as previously described^41.
Ex vivo functional drug screens were performed on freshly isolated mononuclear cells from AML samples. […] Drug plates were created using inhibitors purchased from LC Laboratories and Selleck Chemicals and master stocks were reconstituted in DMSO and stored at −80° C. […] DMSO control wells and positive control wells containing a drug combination of Flavopiridol, Staurosporine and Velcade were placed on each plate, with the final concentration of DMSO ≤0.1% in all wells. Daughter plates were created using a V&P Scientific 384-well pin tool head operated by the Caliper Sciclone ALH 3000 and equipped with 0.457 mm diameter, 30 nanoliter, slotted stainless steel pins (cat num: FP1NS30). Daughter and destination plates were sealed with pealable thermal seals using a PlateLoc thermal sealer. Destination plates were stored at −20° C. for no more than three months and thawed immediately before use. Primary mononuclear cells were plated across single-agent inhibitor panels within 24 h of collection. […] After 3 d of culture at 37° C. in 5% CO2, MTS reagent (CellTiter96 AQueous One; Promega) was added, optical density was measured at 490 nm, and raw absorbance values were adjusted to a reference blank value and then used to determine cell viability (normalized to untreated control wells).
A given sample was run on one or more panels and within each panel, the majority of drugs were run without within-panel replicates. […] An additional set of ‘curve-free’ AUCs was computed for sample-inhibitor pairs run on multiple panels.
Based on the methodology used in our prior drug combination study^36, a probit regression was fit to all possible run groups using the model: (normalized_viability/100)˜1+log 10(concentration) Where for all groups there were N=7 dose-response measurements. The summary measures of curve fit were inspected and cutoffs were devised removing all runs with an AIC >12 and deviance >2.

[1] = BCOR mutation alone or co-mutation of BCOR with DNMT3A or SRSF2

## CC[C@H](CO)Nc1nc(NCc2ccccc2)c2ncn(C(C)C)c2n1 [Roscovitine]
FLT3_ITD
  drug sensitivity mutant vs wild type (average difference in AUC; top left quadrant of volcano plot): roscovitine
NPM1:IDH1
  drug sensitivity mutant vs wild type (average difference in AUC; top left quadrant of volcano plot): roscovitine
ZRSR2
  drug sensitivity mutant vs wild type (average difference in AUC; top left quadrant of volcano plot): Roscovitine

## Cn1cc(-c2ccc3nnc(Sc4ccc5ncccc5c4)n3n2)cn1 [SGX-523, 6-((6-(1-methyl-1H-pyrazol-4-yl)-[1,2,4]triazolo[4,3-b]pyridazin-3-yl)thio)quinoline]
NPM1:CEBPA
  drug sensitivity mutant vs wild type (average difference in AUC; top left quadrant of volcano plot): SGX-523
NPM1:IDH2
  drug sensitivity mutant vs wild type (average difference in AUC; top left quadrant of volcano plot): SGX-523
NPM1:SRSF2
  drug sensitivity mutant vs wild type (average difference in AUC; top left quadrant of volcano plot): SGX-523
NPM1:SRSF2:IDH2
  drug sensitivity mutant vs wild type (average difference in AUC; top left quadrant of volcano plot): SGX-523

## CC(C)(C)c1cnc(CSc2cnc(NC(=O)C3CCNCC3)s2)o1 [SNS-032]
ASXL1
  drug sensitivity mutant vs wild type (average difference in AUC; top left quadrant of volcano plot): SNS-032 (BMS-387032)
NPM1
  drug sensitivity mutant vs wild type (average difference in AUC; top left quadrant of volcano plot): SNS-032

## CNC(=O)c1cc(Oc2ccc(NC(=O)Nc3ccc(Cl)c(C(F)(F)F)c3)cc2)ccn1 [Sorafenib]
DNMT3A
  drug sensitivity mutant vs wild type (average difference in AUC; top left quadrant of volcano plot): Sorafenib
NPM1
  drug sensitivity mutant vs wild type (average difference in AUC; top left quadrant of volcano plot): Sorafenib
NPM1:DNMT3A
  drug sensitivity mutant vs wild type (average difference in AUC; top left quadrant of volcano plot): Sorafenib
NPM1:IDH2
  drug sensitivity mutant vs wild type (average difference in AUC; top left quadrant of volcano plot): sorafenib
NPM1:SRSF2
  drug sensitivity mutant vs wild type (average difference in AUC; top left quadrant of volcano plot): sorafenib
NPM1:TET2
  drug sensitivity mutant vs wild type (average difference in AUC; top left quadrant of volcano plot): Sorafenib

## COc1cc2nccc(Oc3ccc(NC(=O)Nc4cc(C)on4)c(Cl)c3)c2cc1OC [Tivozanib]
CELSR2
  drug sensitivity mutant vs wild type (average difference in AUC; top left quadrant of volcano plot): Tivozanib (AV-951)
FLT3_ITD
  drug sensitivity mutant vs wild type (average difference in AUC; top left quadrant of volcano plot): tivozanib
NPM1
  drug sensitivity mutant vs wild type (average difference in AUC; top left quadrant of volcano plot): Tivozanib
NPM1:FLT3_ITD
  drug sensitivity mutant vs wild type (average difference in AUC; top left quadrant of volcano plot): Tivozanib
NPM1:FLT3_ITD:DNMT3A
  drug sensitivity mutant vs wild type (average difference in AUC; top left quadrant of volcano plot): tivozanib

## C[C@@H]1CCN(C(=O)CC#N)C[C@@H]1N(C)c1ncnc2[nH]ccc12 [Tofacitinib]
[1]
  sensitivity to JAK kinase inhibitors, mutant versus wild type (average AUC difference, one-way ANOVA): no difference in sensitivity
ZRSR2
  drug sensitivity mutant vs wild type (average difference in AUC; top left quadrant of volcano plot): Tofacitinib
co-mutation of BCOR with RUNX1
  sensitivity to JAK kinase inhibitors, mutant versus wild type (average AUC difference, one-way ANOVA): increased sensitivity

## Cc1cc(Nc2cc(N3CCN(C)CC3)nc(Sc3ccc(NC(=O)C4CC4)cc3)n2)[nH]n1 [Tozasertib]
FLT3_ITD
  drug sensitivity mutant vs wild type (average difference in AUC; top left quadrant of volcano plot): Tozasertib
FLT3_ITD:DNMT3A
  drug sensitivity mutant vs wild type (average difference in AUC; top left quadrant of volcano plot): tozasertib
FLT3_ITD_IHD2
  drug sensitivity mutant vs wild type (average difference in AUC; top left quadrant of volcano plot): tozasertib
IDH2
  drug sensitivity mutant vs wild type (average difference in AUC; top left quadrant of volcano plot): Tozasertib
NPM1:FLT3_ITD:DNMT3A
  drug sensitivity mutant vs wild type (average difference in AUC; top left quadrant of volcano plot): tozasertib
NPM1:SRSF2
  drug sensitivity mutant vs wild type (average difference in AUC; top left quadrant of volcano plot): Tozasertib

## CCS(=O)(=O)O.COC(=O)c1ccc2c(c1)NC(=O)/C2=C(\Nc1ccc(N(C)C(=O)CN2CCN(C)CC2)cc1)c1ccccc1 [Vargetef]
FLT3_ITD
  drug sensitivity mutant vs wild type (average difference in AUC; top left quadrant of volcano plot): vargetef
FLT3_ITD:DNMT3A
  drug sensitivity mutant vs wild type (average difference in AUC; top left quadrant of volcano plot): vargetef
FLT3_ITD:FLT3
  drug sensitivity mutant vs wild type (average difference in AUC; top left quadrant of volcano plot): vargetef
FLT3_ITD:TET2
  drug sensitivity mutant vs wild type (average difference in AUC; top left quadrant of volcano plot): vargetef
FLT3_ITD:TET2:DNMT3A
  drug sensitivity mutant vs wild type (average difference in AUC; top left quadrant of volcano plot): Vargetef
FLT3_ITD_IHD2
  drug sensitivity mutant vs wild type (average difference in AUC; top left quadrant of volcano plot): vargetef
IDH2
  drug sensitivity mutant vs wild type (average difference in AUC; top left quadrant of volcano plot): Vargetef
NPM1
  drug sensitivity mutant vs wild type (average difference in AUC; top left quadrant of volcano plot): Vagetef
NPM1:FLT3_ITD
  drug sensitivity mutant vs wild type (average difference in AUC; top left quadrant of volcano plot): vargetef
NPM1:FLT3_ITD:DNMT3A
  drug sensitivity mutant vs wild type (average difference in AUC; top left quadrant of volcano plot): vargetef
NPM1:FLT3_ITD:TET2
  drug sensitivity mutant vs wild type (average difference in AUC; top left quadrant of volcano plot): vargetef
NPM1:IDH2
  drug sensitivity mutant vs wild type (average difference in AUC; top left quadrant of volcano plot): Vargetef
NPM1:SRSF2
  drug sensitivity mutant vs wild type (average difference in AUC; top left quadrant of volcano plot): Vargetef
NPM1:TET2: DNMT3A
  drug sensitivity mutant vs wild type (average difference in AUC; top left quadrant of volcano plot): Vargetef

## Clc1ccc(Nc2nnc(Cc3ccncc3)c3ccccc23)cc1 [Vatalanib]
FLT3_ITD
  drug sensitivity mutant vs wild type (average difference in AUC; top left quadrant of volcano plot): vatalanib
FLT3_ITD:ASXL1
  drug sensitivity mutant vs wild type (average difference in AUC; top left quadrant of volcano plot): vatalanib
MLLT3.KMT2A
  drug sensitivity mutant vs wild type (average difference in AUC; top left quadrant of volcano plot): Vatalanib
NPM1:FLT3_ITD
  drug sensitivity mutant vs wild type (average difference in AUC; top left quadrant of volcano plot): vatalanib
SMC1A
  drug sensitivity mutant vs wild type (average difference in AUC; top left quadrant of volcano plot): Vatalanib

## CS(=O)(=O)c1ccc(C(=O)Nc2ccc(Cl)c(-c3ccccn3)c2)c(Cl)c1 [Vismodegib]
WT1
  drug sensitivity mutant vs wild type (average difference in AUC; top left quadrant of volcano plot): Vismodegib

## O=c1[nH]c(-c2ccc(C(F)(F)F)cc2)nc2c1CSCC2 [XAV-939, 3,5,7,8-Tetrahydro-2-[4-(trifluoromethyl)phenyl]-4H-thiopyrano[4,3-d]pyrimidin-4-one]
BCOR
  drug sensitivity mutant vs wild type (average difference in AUC; top left quadrant of volcano plot): XAV-939
BCOR mutation alone
  drug sensitivity of mutant cases: did show sensitivity
BCOR:ASXL1
  drug sensitivity mutant vs wild type (average difference in AUC; top left quadrant of volcano plot): XAV-939
BCOR:DNMT3A
  drug sensitivity mutant vs wild type (average difference in AUC; top left quadrant of volcano plot): XAV-939
BCOR:SRSF2
  drug sensitivity mutant vs wild type (average difference in AUC; top left quadrant of volcano plot): XAV-939

## C=CC(=O)Nc1cc2c(Nc3ccc(F)c(Cl)c3)ncnc2cc1OCCCN1CCOCC1 [canertinib]
FLT3_ITD
  drug sensitivity mutant vs wild type (average difference in AUC; top left quadrant of volcano plot): canertinib
FLT3_ITD:TET2
  drug sensitivity mutant vs wild type (average difference in AUC; top left quadrant of volcano plot): canertinib
FLT3_ITD_IHD2
  drug sensitivity mutant vs wild type (average difference in AUC; top left quadrant of volcano plot): canertinib
NPM1:FLT3_ITD
  drug sensitivity mutant vs wild type (average difference in AUC; top left quadrant of volcano plot): canertinib
SMC1A
  drug sensitivity mutant vs wild type (average difference in AUC; top left quadrant of volcano plot): canertinib

## N#CCNC(=O)c1ccc(-c2ccnc(Nc3ccc(N4CCOCC4)cc3)n2)cc1 [cyt387]
[1]
  sensitivity to JAK kinase inhibitors, mutant versus wild type (average AUC difference, one-way ANOVA): no difference in sensitivity
FLT3_ITD
  drug sensitivity mutant vs wild type (average difference in AUC; top left quadrant of volcano plot): cyt387
NPM1:FLT3_ITD
  drug sensitivity mutant vs wild type (average difference in AUC; top left quadrant of volcano plot): cyt387
co-mutation of BCOR with RUNX1
  sensitivity to JAK kinase inhibitors, mutant versus wild type (average AUC difference, one-way ANOVA): increased sensitivity

## CN(NC(=O)CC(=O)NN(C)C(=S)c1ccccc1)C(=S)c1ccccc1 [elesclemol]
TP53 mutant cases
  drug sensitivity of mutant cases: trended more sensitive

## C#Cc1cccc(Nc2ncnc3cc(OCCOC)c(OCCOC)cc23)c1 [erlotinib]
FLT3_ITD:DNMT3A
  drug sensitivity mutant vs wild type (average difference in AUC; top left quadrant of volcano plot): erlotinib
NPM1
  drug sensitivity mutant vs wild type (average difference in AUC; top left quadrant of volcano plot): erlotinib
NPM1:FLT3_ITD:DNMT3A
  drug sensitivity mutant vs wild type (average difference in AUC; top left quadrant of volcano plot): erlotinib
NPM1:FLT3_ITD:TET2
  drug sensitivity mutant vs wild type (average difference in AUC; top left quadrant of volcano plot): erlotinib
NPM1:IDH1
  drug sensitivity mutant vs wild type (average difference in AUC; top left quadrant of volcano plot): erlotinib
NPM1:IDH2
  drug sensitivity mutant vs wild type (average difference in AUC; top left quadrant of volcano plot): erlotinib
NPM1:SRSF2
  drug sensitivity mutant vs wild type (average difference in AUC; top left quadrant of volcano plot): erlotinib

## CC1(C)CNc2cc(NC(=O)c3cccnc3NCc3ccncc3)ccc21 [motesanib]
FLT3_ITD:RUNX1
  drug sensitivity mutant vs wild type (average difference in AUC; top left quadrant of volcano plot): motesanib

## O=c1ncn2nc(Sc3ccc(F)cc3F)ccc2c1-c1c(Cl)cccc1Cl [vx-745]
FLT3_ITD
  drug sensitivity mutant vs wild type (average difference in AUC; top left quadrant of volcano plot): vx-745
FLT3_ITD:ASXL1
  drug sensitivity mutant vs wild type (average difference in AUC; top left quadrant of volcano plot): vx-745
NPM1:IDH2
  drug sensitivity mutant vs wild type (average difference in AUC; top left quadrant of volcano plot): vx-
NPM1:SRSF2
  drug sensitivity mutant vs wild type (average difference in AUC; top left quadrant of volcano plot): vx-745

## JAK Inhibitor I
[1]
  sensitivity to JAK kinase inhibitors, mutant versus wild type (average AUC difference, one-way ANOVA): no difference in sensitivity
co-mutation of BCOR with RUNX1
  sensitivity to JAK kinase inhibitors, mutant versus wild type (average AUC difference, one-way ANOVA): increased sensitivity

— patent US12268690B2, “Treatments for mutations in acute myeloid leukemia” (OREGON HEALTH & SCIENCE UNIVERSITY, priority 2018, dated 2025)
